Data: patent publication US12139487B2, “Compounds and uses thereof” (Foghorn Therapeutics Inc., priority 2022, dated 2024)

What was measured:
BRM = target: T1, BRM (Homo sapiens, UniProt P51531); experiment: ATPase catalytic activity assay (ADP-Glo), BRM; assay type: biochemical; conditions: Table 10; for Ratio (BRG1 IC50 (μM) divided by BRM IC50 (μM)): ATPase assay, selectivity BRG1/BRM; for IC50: ATPase catalytic activity assay (ADP-Glo)
T1 construct: made in house; host or cells: High Five insect cells
T1 sequence (P51531 whole entry): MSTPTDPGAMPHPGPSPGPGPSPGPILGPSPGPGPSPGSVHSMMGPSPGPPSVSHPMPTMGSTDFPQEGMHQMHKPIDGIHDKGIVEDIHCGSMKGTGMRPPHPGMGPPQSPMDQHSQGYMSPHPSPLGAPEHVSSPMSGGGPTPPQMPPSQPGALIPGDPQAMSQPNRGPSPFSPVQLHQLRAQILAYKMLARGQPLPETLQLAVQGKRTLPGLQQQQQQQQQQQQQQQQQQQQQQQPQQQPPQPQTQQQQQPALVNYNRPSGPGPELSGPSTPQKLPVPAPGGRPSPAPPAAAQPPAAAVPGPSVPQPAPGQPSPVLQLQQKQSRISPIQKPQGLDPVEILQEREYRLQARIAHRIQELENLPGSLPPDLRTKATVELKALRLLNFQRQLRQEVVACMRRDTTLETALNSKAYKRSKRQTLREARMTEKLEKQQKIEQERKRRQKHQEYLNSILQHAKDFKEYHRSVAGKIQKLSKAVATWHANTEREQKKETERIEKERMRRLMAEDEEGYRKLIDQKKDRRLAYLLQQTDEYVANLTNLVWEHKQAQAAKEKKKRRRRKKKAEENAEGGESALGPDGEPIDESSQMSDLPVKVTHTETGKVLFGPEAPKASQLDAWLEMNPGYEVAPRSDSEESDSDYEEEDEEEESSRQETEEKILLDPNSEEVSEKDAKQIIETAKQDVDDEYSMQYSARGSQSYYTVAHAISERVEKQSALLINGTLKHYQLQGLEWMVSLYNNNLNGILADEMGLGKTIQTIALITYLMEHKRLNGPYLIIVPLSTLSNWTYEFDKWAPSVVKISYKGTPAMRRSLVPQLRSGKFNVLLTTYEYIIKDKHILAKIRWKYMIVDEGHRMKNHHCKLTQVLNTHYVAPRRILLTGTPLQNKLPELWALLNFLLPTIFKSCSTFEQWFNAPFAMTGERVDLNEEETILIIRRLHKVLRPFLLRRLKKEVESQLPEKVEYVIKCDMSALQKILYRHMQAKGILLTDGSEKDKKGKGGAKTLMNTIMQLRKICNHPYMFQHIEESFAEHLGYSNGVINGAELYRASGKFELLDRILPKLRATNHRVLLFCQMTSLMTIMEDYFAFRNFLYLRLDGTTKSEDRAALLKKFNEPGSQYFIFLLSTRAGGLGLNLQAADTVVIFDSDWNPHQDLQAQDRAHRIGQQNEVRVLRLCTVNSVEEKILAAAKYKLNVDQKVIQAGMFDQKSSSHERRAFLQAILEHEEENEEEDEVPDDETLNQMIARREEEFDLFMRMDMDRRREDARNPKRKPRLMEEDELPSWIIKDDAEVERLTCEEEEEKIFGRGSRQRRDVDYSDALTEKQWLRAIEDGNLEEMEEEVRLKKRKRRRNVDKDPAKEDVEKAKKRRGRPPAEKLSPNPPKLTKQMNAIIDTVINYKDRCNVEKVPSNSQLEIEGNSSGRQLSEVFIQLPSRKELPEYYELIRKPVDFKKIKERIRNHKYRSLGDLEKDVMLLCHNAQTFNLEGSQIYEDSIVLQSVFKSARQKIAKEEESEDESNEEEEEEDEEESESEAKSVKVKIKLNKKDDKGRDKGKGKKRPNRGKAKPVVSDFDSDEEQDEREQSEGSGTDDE
Experimental: (§1) The ATPase catalytic activity of BRM or BRG-1 was measured by an in vitro biochemical assay using ADP-Glo™ (Promega, V9102). The ADP-Glo™ kinase assay is performed in two steps once the reaction is complete. The first step is to deplete any unconsumed ATP in the reaction. The second step is to convert the reaction product ADP to ATP, which will be utilized by the luciferase to generate luminesce and be detected by a luminescence reader, such as Envision.
The assay reaction mixture […] contains 30 nM of BRM or BRG-1, 20 nM salmon sperm DNA (from Invitrogen, UltraPure™ Salmon Sperm DNA Solution, cat #15632011), and 400 μM of ATP in the ATPase assay buffer, which comprises of 20 mM Tris, pH 8, 20 mM MgCl2, 50 mM NaCl, 0.1% Tween-20, and 1 mM fresh DTT (Pierce™ DTT (Dithiothreitol), cat #20290). The reaction is initiated by the addition of the 2.5 μL ATPase solution to 2.5 μL ATP/DNA solution on low volume white Proxiplate-384 plus plate (PerkinElmer, cat #6008280) and incubates at room temperature for 1 hour. Then, following addition of 5 μL of ADP-Glo™ Reagent provided in the kit, the reaction incubates at room temperature for 40 minutes. Then, 10 μL of Kinase Detection Reagent provided in the kit is added to convert ADP to ATP, and the reaction incubates at room temperature for 60 minutes. Finally, luminescence measurement is collected with a plate-reading luminometer, such as Envision.

BRG-1 = target: T2, BRG-1 (Homo sapiens, UniProt P51532); experiment: ATPase catalytic activity assay (ADP-Glo), BRG-1; assay type: biochemical; conditions: Table 10, read-out: BRG1 IC50
T2 construct: made in house; host or cells: High Five insect cells
T2 sequence (P51532 whole entry): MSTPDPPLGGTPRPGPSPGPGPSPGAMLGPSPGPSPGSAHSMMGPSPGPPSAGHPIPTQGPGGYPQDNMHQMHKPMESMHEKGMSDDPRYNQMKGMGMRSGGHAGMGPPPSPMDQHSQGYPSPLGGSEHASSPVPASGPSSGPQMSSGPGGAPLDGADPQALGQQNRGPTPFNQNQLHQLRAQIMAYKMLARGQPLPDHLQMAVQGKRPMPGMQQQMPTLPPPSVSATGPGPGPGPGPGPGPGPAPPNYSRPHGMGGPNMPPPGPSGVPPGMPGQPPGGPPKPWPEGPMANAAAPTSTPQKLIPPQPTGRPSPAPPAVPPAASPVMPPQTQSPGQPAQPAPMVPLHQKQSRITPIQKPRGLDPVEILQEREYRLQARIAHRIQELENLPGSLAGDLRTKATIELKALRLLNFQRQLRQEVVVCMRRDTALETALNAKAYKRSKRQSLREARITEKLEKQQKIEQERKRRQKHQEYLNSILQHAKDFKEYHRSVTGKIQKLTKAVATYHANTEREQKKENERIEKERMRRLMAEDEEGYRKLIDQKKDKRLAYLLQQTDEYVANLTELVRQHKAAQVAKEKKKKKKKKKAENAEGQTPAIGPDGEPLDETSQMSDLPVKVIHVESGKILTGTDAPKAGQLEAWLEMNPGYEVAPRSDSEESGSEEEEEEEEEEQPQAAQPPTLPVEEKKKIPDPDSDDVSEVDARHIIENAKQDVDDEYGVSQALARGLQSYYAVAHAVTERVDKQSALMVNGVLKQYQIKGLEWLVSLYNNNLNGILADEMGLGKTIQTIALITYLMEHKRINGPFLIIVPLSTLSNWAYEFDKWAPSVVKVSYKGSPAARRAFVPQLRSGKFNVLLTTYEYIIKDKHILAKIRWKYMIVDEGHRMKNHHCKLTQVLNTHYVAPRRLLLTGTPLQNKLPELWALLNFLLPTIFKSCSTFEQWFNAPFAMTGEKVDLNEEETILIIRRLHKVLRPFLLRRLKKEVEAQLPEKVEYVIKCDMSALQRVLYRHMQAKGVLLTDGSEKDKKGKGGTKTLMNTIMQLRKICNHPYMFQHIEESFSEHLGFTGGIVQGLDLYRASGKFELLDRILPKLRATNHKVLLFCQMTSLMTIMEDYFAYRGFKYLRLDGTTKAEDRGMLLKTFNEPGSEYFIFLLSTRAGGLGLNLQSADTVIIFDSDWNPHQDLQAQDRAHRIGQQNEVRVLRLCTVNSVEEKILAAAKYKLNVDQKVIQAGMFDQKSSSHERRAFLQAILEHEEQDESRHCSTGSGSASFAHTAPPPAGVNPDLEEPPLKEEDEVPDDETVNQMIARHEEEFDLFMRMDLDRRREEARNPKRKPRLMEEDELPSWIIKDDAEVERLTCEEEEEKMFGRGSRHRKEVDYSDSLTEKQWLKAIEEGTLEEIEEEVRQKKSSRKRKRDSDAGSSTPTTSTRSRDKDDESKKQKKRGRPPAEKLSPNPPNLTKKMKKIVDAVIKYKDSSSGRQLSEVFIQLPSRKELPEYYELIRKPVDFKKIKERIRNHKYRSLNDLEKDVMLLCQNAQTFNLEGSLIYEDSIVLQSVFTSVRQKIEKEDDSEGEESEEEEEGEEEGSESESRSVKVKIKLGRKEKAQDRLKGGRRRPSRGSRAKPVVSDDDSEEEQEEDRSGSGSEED
Experimental: as §1
Then, following addition of 5 μL of ADP-Glo™ Reagent provided in the kit, the reaction incubates at room temperature for 40 minutes. Then, 10 μL of Kinase Detection Reagent provided in the kit is added to convert ADP to ATP, and the reaction incubates at room temperature for 60 minutes. Finally, luminescence measurement is collected with a plate-reading luminometer, such as Envision.

SMILES | Ratio (BRG1 IC50 (μM) divided by BRM IC50 (μM)) (BRM) | IC50 (BRM) [nM] | IC50 (BRG-1) [nM]
O=C(NCc1cc2nc(N3CCOc4cc(C5CC5)cnc43)ccc2cn1)c1cc(F)c2c(c1)S(=O)(=O)[C@@H](F)COC2 [Compound 8] | 14.89 | 1.3 | 22.3
O=C(NCc1cc2cc(N3CCOc4cc(C5CC5)cnc43)ccc2cn1)c1cc(F)c2c(c1)S(=O)(=O)[C@@H](F)COC2 [Compound 9] | 23.22 | 1.3 | 30.2
COCc1cc2c(c(F)c1Cl)N(c1ccc3cnc(CNC(=O)c4cc(F)c5c(c4)S(=O)(=O)[C@@H](F)CCO5)cc3n1)CCO2 [Compound 10] | 11.90 | 1.3 | 15.7
CCOc1ccnc2c1OCCN2c1ccc2cnc(CNC(=O)c3cc(F)c4c(c3)S(=O)(=O)[C@@H](F)COC4)cc2n1 [Compound 11] | 9.50 | 1.4 | 14.2
CCO[C@@H]1CCN(c2cccc(-c3ccc4cnc(CNC(=O)c5cc(F)c6c(c5)S(=O)(=O)[C@@H](F)COC6)cc4n3)n2)C1 [Compound 12] | 11.63 | 1.4 | 16.2
C[C@H]1C[C@@H]1c1ccc2c(n1)N(c1ccc3cnc(CNC(=O)c4cc(F)c5c(c4)S(=O)(=O)[C@@H](F)COC5)cc3n1)CCO2 [Compound 13] | 14.77 | 1.5 | 24.3
O=C(NCc1cc2nc(N3CCCc4c3ncc(F)c4OC3CC3)ccc2cn1)c1cc(F)c2c(c1)S(=O)(=O)[C@@H](F)CCO2 [Compound 15] | 11.06 | 1.5 | 16.6
C[C@@H]1CN(c2nccc(-c3ccc4cnc(CNC(=O)c5cc(F)c6c(c5)S(=O)(=O)[C@@H](F)CCO6)cc4c3)n2)C[C@H](C)O1 [Compound 16] | 10.27 | 1.5 | 17.8
CCN(CC)c1cnc2c(c1)OCCN2c1ccc2cnc(CNC(=O)c3cc(F)c4c(c3)S(=O)(=O)[C@@H](F)COC4)cc2n1 [Compound 17] | 12.76 | 1.5 | 23.4
O=C(NCc1cc2nc(N3CCCc4c(OC5CC5)ccnc43)ccc2cn1)c1cc(F)c2c(c1)S(=O)(=O)[C@@H](F)CCO2 [Compound 18] | 15.43 | 1.5 | 24
C[C@@H]1CN(c2cncc(-c3ccc4cnc(CNC(=O)c5cc(F)c6c(c5)S(=O)(=O)[C@@H](F)CCO6)cc4c3)n2)C[C@H](C)O1 [Compound 19, (4R)—N-[[6-[6-[(2S,6R)-2,6-dimethylmorpholin-4-yl]pyrazin-2-yl]-3-isoquinolyl]methyl]-4,9-difluoro-5,5-dioxo-3,4-dihydro-2H-1,5λ6-benzoxathiepine-7-carboxamide] | 13.20 | 1.6 | 20.7
C[C@H]1C[C@@H]1c1ccc2c(n1)N(c1ccc3cnc(CNC(=O)c4cc(F)c5c(c4)S(=O)(=O)[C@@H](F)CCO5)cc3n1)CCO2 [Compound 20] | 26.66 | 1.6 | 44.7
Cc1cc(C(=O)NCc2cc3nc(-c4cccc(N5C[C@@H](C)O[C@@H](C)C5)n4)ccc3cn2)cc2c1COC[C@H](F)S2(=O)=O [Compound 21] | 16.50 | 1.6 | 28.3
C[C@@H]1CN(c2cccc(-c3ccc4cnc(CNC(=O)c5ccc6c(c5)S(=O)(=O)[C@@H](F)CCO6)cc4n3)n2)C[C@H](C)O1 [Compound 22] | 9.93 | 1.6 | 16.2
[2H]C1([2H])OC([2H])([2H])[C@H](F)S(=O)(=O)c2cc(C(=O)NCc3cc4nc(-c5ccc(C(F)F)nc5OC)ccc4cn3)cc(F)c21 [Compound 23] | – | 1.6 | 37.9
CO[C@H](C)COc1ccc2c(c1)N(c1ccc3cnc(CNC(=O)c4cc(F)c5c(c4)S(=O)(=O)[C@@H](F)CCO5)cc3n1)CCO2 [Compound 24] | 18.65 | 1.7 | 31.1
O=C(NCc1cc2nc(N3CCOc4cc(C5(C(F)F)CC5)cnc43)ccc2cn1)c1cc(F)c2c(c1)S(=O)(=O)[C@@H](F)COC2 [Compound 25] | 21.51 | 1.7 | 43.9
O=C(NCc1cc2nc(N3CCOc4ccc([C@H]5C[C@@H]5C(F)F)nc43)ccc2cn1)c1cc(F)c2c(c1)S(=O)(=O)[C@@H](F)COC2 [Compound 26] | 21.77 | 1.7 | 39.1
CCOc1ccnc2c1OCCN2c1ccc2cnc(CNC(=O)c3cc(Cl)c4c(c3)S(=O)(=O)[C@@H](F)COC4)cc2n1 [Compound 27] | 11.52 | 1.8 | 19.5
Cc1cc(C(=O)NCc2cc3nc(N4CCOc5cc(N6CC[C@H]6C)cnc54)ccc3cn2)cc2c1COC[C@H](F)S2(=O)=O [Compound 28] | 22.66 | 1.8 | 42.2
CCOc1nc(C(F)F)ccc1-c1ccc2cnc(CNC(=O)c3cc(F)c4c(c3)S(=O)(=O)[C@@H](F)COC4)cc2n1 [Compound 29] | 22.36 | 1.8 | 35
O=C(NCc1cc2nc(N3CCOc4cc(N5CC(F)C5)cnc43)ccc2cn1)c1cc(F)c2c(c1)S(=O)(=O)[C@@H](F)COC2 [Compound 30] | 19.40 | 1.8 | 39.1
O=C(NCc1cc2nc(N3CCOc4cc(N5CC[C@H]5CF)cnc43)ccc2cn1)c1cc(F)c2c(c1)S(=O)(=O)[C@@H](F)CCO2 [Compound 31] | 18.05 | 1.8 | 33
O=C(NCc1cc2nc(N3CCOc4cc(C(F)F)cnc43)ccc2cn1)c1cc(F)c2c(c1)S(=O)(=O)[C@@H](F)COC2 [Compound 32] | 18.96 | 1.9 | 36.7
CN(C)c1cnc2c(c1)OCCN2c1ccc2cnc(CNC(=O)c3cc(F)c4c(c3)S(=O)(=O)[C@@H](F)COC4)cc2n1 [Compound 33] | 11.17 | 1.9 | 18.9
C[C@@H]1CN(c2cccc(-c3ccc4cnc(CNC(=O)c5cc(F)c6c(c5)S(=O)(=O)[C@H](F)C[C@H](C)O6)cc4n3)n2)C[C@H](C)O1 [Compound 34, (2S,4S)—N-((2-(6-((2S,6R)-2,6-dimethylmorpholino)pyridin-2-yl)-1,6-naphthyridin-7-yl)methyl)-4,9-difluoro-2-methyl-3,4-dihydro-2H-benzo[b][1,4]oxathiepine-7-carboxamide 5,5-dioxide] | 12.17 | 120 | 1470
COCCOc1ccc2c(c1)N(c1ccc3cnc(CNC(=O)c4cc(F)c5c(c4)S(=O)(=O)[C@@H](F)CCO5)cc3n1)CCO2 [Compound 35] | 13.74 | 1.9 | 23.3
CC#Cc1ccc2c(n1)N(c1ccc3cnc(CNC(=O)c4cc(F)c5c(c4)S(=O)(=O)[C@@H](F)CCO5)cc3n1)CCO2 [Compound 37] | 15.93 | 2 | 31.9
O=C(NCc1cc2nc(N3CCOc4cc(C5CC5)cnc43)ccc2cn1)c1ccc2c(c1)S(=O)(=O)[C@@H](F)CCO2 [Compound 38] | 16.77 | 2 | 33.9
